Measured values taken from patent US12306176B2, “Microfluidic bi-directional migration assay” (Ohio State Innovation Foundation, priority 2017, dated 2025).

System: MDA-MB-231 cells
Assay: Microfluidic bi-directional migration (MBDM) assay, mean migration speed and persistence
Format: cell-based, human
From the text: To quantify the effects of iEF treatment on directed cell migration speed and persistence, a custom microfluidic bi-directional microtrack (MBDM) assay was developed that enables real-time monitoring with time-lapse microscopy of cell motility.
In this study, the EF sensing mechanisms of breast cancer cells in response to asymmetric iEFs (<100 μV/cm) was investigated. Using a MBDM assay, changes in the speed and persistence of spontaneously migrating MDA-MB-231 breast cancer cells were observed. This cell type was selected for these studies because it is a putative metastatic breast cancer cell line that is also responsive to gradients of a chemoattractant such as EGF (Wang S J, et al. (2004) Exp Cell Res 300 (1):180-189; Wu A, et al. (2013) Proc Natl Acad Sci U S A 110(40):16103-16108). […] This configuration enables direct comparison of cell movement in response to iEFs applied primarily with the direction of cell migration (“parallel”) or against the direction of cell migration (“anti-parallel”) within the same microfluidic device. Here, the field direction is defined as the direction that has the higher peak magnitude, as well as higher time-average field strength.
To calculate persistence, the following protocol was followed for each cell tracked in a microtrack of the MBDM assay. A cell starts at position Pt at time t. After a single time increment, dt, the cell moves to a new position, Pt+dt. The distance traveled during this time is the absolute difference in the two positions denoted as Li: Li=|Pt+dt−Pt|
The total distance traveled is then the sum of all distances traveled during N time increments denoted as Lt. Additionally, the total time of travel is the number of time increments multiplied by the size of the time increments denoted as Tt.
The displacement is simply the difference between the final and initial position: Ld=|PFinal−PInitial|
The MBDM assay was designed to have three ports separated by 700 μm long arrays of parallel microtracks (FIG. 1D). The dimension of each port was 50 mm×15 mm. Cells were seeded in the center port and the top and bottom ports were designated as cell collection port and/or chemokine source reservoir port depending on the experimental condition. Microchannels were designed to have a square cross-section of 20 μm×20 μm. The cross-section dimensions were on the same order as the size of single cells and mimic the dimensions of pre-existing microtracks available to cells in-vivo (Kraning-Rush C M, et al. (2013) lntegr Biol (Camb). 5 (3):606-616). Moreover, these migratory tracks are representative of physiologically relevant matrix metalloproteinase independent cancer-cell migration mode during metastasis (Friedl P & Alexander S (2011) Cell 147 (5):992-1009; Wolf K, et al. (2009) Semin Cell Dev Biol. 20 (8):931-941; Friedl P & Wolf K (2003) Nat Rev Cancer. 3 (5):362; Wolf K, et al. (2007) Nat Cell Biol. 9 (8):893; Wolf K, et al. (2003) J Cell Biol. 160 (2):267-277). The bi-directional design of this assay allows cells to migrate in either direction from the seeding port and provides a better understanding and quantification of the directional bias of external cues such as chemokine gradients and the directional effects of applied iEFs. The large ports for cell seeding ensure uniform seeding density, excellent cell viability, and repeatability.
Cells were washed in culture plates with 1×PBS solution, treated with 0.05% trypsin-EDTA solution (Sigma-Aldrich), and then counted using a hemocytometer. Cells (2×10^5) suspended in migration media were seeded in the middle port (seeding port) with an extremely small flow from the collection ports to the seeding port, which equilibrated in less than 15 minutes. The cells inside the devices were then incubated for 12 hours in migration media following which the media was aspirated and replaced with new media based on the experimental conditions. […]

[1] = MK2206 2.5 μM alone, no EGF, no iEF
[2] = MK2206 2.5 μM alone, under EGF gradient (25 ng/mL)
[3] = MK2206 2.5 μM plus anti-parallel iEFs, under EGF gradient
[4] = MK2206 2.5 μM plus parallel iEFs, under EGF gradient

NC1(c2ccc(-c3nc4ccn5c(=O)[nH]nc5c4cc3-c3ccccc3)cc2)CCC1 [MK2206]
increase of mean migration speed compared to untreated controls [1]: 9% | reduction of persistence compared to untreated controls [1]: 31% | reduction of persistence below EGF-gradient conditions (MK2206 2.5 μM alone, under EGF gradient): 9% | mean migration speed [2]: 0.36 μm/min | reduction of mean migration speed compared to EGF-gradient condition [2]: 16% | persistence compared to MK2206 treatment alone (MK2206 2.5 μM co-applied with anti-parallel iEFs, no EGF): significantly increased | average migration speed compared to untreated controls (MK2206 2.5 μM co-applied with iEFs, parallel or anti-parallel, no EGF): comparable modest decrease | mean migration speed [3]: 0.31 μm/min | reduction of mean migration speed below EGF controls [3]: 28% | reduction of persistence from the EGF control [3]: 26% | mean migration speed [4]: 0.26 μm/min | reduction of mean migration speed below EGF controls [4]: 40% | reduction of persistence from the EGF control [4]: 19% | directional response of migration speed to iEF (MK2206 treatment, no exogenous EGF gradient): nullified
